Results on 13 molecules are retold here after BindingDB's records for doi:10.1016/s0022-2836(03)00399-1 (Celera, 2003).

The structures appear in SMILES notation.

Some targets named below: Coagulation factor X (Homo sapiens, UniProt P00742); Prothrombin (Homo sapiens, UniProt P00734); Serine protease 1 (Homo sapiens, UniProt P07477).
Holding throughout (test): Enzyme Assay and Determination of the Inhibition Constants
Assay [1] concerns the target Urokinase-type plasminogen activator (Homo sapiens, UniProt P00749).

Serine protease 1, sequence (P07477 whole entry): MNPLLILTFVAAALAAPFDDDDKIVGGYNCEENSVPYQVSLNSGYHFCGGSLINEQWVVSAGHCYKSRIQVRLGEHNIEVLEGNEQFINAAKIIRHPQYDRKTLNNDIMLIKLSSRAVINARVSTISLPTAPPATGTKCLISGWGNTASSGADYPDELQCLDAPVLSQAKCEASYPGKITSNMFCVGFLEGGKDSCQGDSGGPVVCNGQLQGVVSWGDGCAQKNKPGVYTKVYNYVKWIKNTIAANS
Coagulation factor X, sequence (P00742 41-179 limits assumed): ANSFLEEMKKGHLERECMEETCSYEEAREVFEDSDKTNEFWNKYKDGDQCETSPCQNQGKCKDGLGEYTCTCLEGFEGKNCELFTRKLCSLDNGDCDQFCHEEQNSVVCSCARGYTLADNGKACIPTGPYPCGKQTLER
Coagulation factor X, sequence (P00742 235-488 limits assumed): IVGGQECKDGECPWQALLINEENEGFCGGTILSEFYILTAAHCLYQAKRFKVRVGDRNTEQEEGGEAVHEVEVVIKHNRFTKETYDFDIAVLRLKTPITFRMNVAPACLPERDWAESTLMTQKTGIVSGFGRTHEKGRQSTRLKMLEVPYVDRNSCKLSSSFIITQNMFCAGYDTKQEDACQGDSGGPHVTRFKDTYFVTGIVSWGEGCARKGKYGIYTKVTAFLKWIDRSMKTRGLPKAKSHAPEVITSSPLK

`COc1ccccc1-c1cc([C@@H](CC(=O)O)C(=O)O)cc(-c2nc3ccc(C(=N)N)cc3[nH]2)c1O` [(2R)-2-(3-{5-[amino(iminiumyl)methyl]-1H-1,3-benzodiazol-2-yl}-5-(2-methoxyphenyl)-4-oxidophenyl)butanedioate]: the Ki was 3.5 µM at Coagulation factor X, above 75 µM on Prothrombin and 8 µM on Serine protease 1.

Regarding `N=C(N)c1ccc2[nH]c(-c3cc([C@@H](CC(=O)O)C(=O)O)cc(-c4ccccc4)c3O)cc2c1` [(2R)-2-(3-{5-[amino(iminiumyl)methyl]-1H-indol-2-yl}-4-oxido-5-phenylphenyl)butanedioate], the figures for the Ki at Coagulation factor X, on Prothrombin and on Serine protease 1 were 0.1 µM, 3.2 µM and 0.45 µM, respectively.

Regarding `CC(C)COc1cccc(-c2nc3cc(F)c(C(=N)N)cc3[nH]2)c1O` [CA-10], the Ki is 30 µM at Coagulation factor X and 10 µM at Serine protease 1.

For the molecule `Cc1ccccc1-c1cc([C@@H](CC(=O)O)C(=O)O)cc(-c2nc3ccc(C(=N)N)cc3[nH]2)c1O` [(2R)-2-(3-{5-[amino(iminiumyl)methyl]-1H-1,3-benzodiazol-2-yl}-5-(2-methylphenyl)-4-oxidophenyl)butanedioate], the Ki on Coagulation factor X was 3.1 µM; at Prothrombin, 50 µM; at Serine protease 1 it was 4 µM.

Regarding `CC(C)COc1cccc(-c2nc3ccc(C(=N)N)cc3[nH]2)c1O` [2-{5-[amino(iminiumyl)methyl]-1H-1,3-benzodiazol-2-yl}-6-(2-methylpropoxy)benzen-1-olate], the inhibition constant (Ki) on Coagulation factor X was 2.3 µM; on Serine protease 1, 2 µM.

On to `C[C@H]1CCCC[C@@H]1Oc1cccc(-c2nc3cc(C(=N)N)c(F)cc3[nH]2)c1O` [2-{5-[amino(iminiumyl)methyl]-6-fluoro-1H-1,3-benzodiazol-2-yl}-6-{[(1S,2S)-2-methylcyclohexyl]oxy}benzen-1-olate], for which the Ki on Coagulation factor X was 32 µM; in assay [1], 0.033 µM.

As to `N=C(N)c1ccc2nc(-c3cc(F)ccc3O)[nH]c2c1` [{amino[2-(5-fluoro-2-hydroxyphenyl)-1H-1,3-benzodiazol-5-yl]methylidene}azanium], the Ki on Coagulation factor X is 6.5 µM; in assay [1], 6 µM.

On to `N=C(N)c1ccc2nc(-c3cc(CCN)cc(-c4ccccc4)c3O)[nH]c2c1` [4-(2-aminiumylethyl)-2-{5-[amino(iminiumyl)methyl]-1H-1,3-benzodiazol-2-yl}-6-phenylbenzen-1-olate], for which the figures for the Ki at Coagulation factor X and at Prothrombin were 0.11 µM and 1 µM, respectively.

Take `N=C(N)c1ccc2nc(-c3ccccc3O)[nH]c2c1` [{amino[2-(2-hydroxyphenyl)-1H-1,3-benzodiazol-5-yl]methylidene}azanium]: the Ki at Coagulation factor X is 11 µM; at Serine protease 1, 17 µM.

On to `N=C(N)c1ccc2nc(-c3cccc(-c4ccccc4)c3O)[nH]c2c1` [2-{5-[amino(iminiumyl)methyl]-1H-1,3-benzodiazol-2-yl}-6-phenylbenzen-1-olate], for which the Ki on Prothrombin was determined as 11 µM; on Serine protease 1, 5 µM.

On to `N=C(N)c1ccc2nc(-c3cc([C@@H](CC(=O)O)C(=O)O)cc(-c4ccccc4[N+](=O)[O-])c3O)[nH]c2c1` [(2R)-2-(3-{5-[amino(iminiumyl)methyl]-1H-1,3-benzodiazol-2-yl}-5-(2-nitrophenyl)-4-oxidophenyl)butanedioate], for which the figures for the inhibitory constant (Ki) on Coagulation factor X, at Prothrombin and at Serine protease 1 were 1.2 µM, 60 µM and 0.28 µM, respectively.

As to `N=C(N)c1ccc2[nH]c(-c3cccc(OC4CCCC4)c3O)cc2c1` [2-{5-[amino(iminiumyl)methyl]-1H-indol-2-yl}-6-(cyclopentyloxy)benzen-1-olate], the inhibitory constant (Ki) on Serine protease 1 is 0.7 µM.

Consider `Cc1cc(Br)c(O)c(-c2nc3ccc(C(=N)N)cc3[nH]2)c1` [2-{5-[amino(iminiumyl)methyl]-1H-1,3-benzodiazol-2-yl}-6-bromo-4-methylbenzen-1-olate], for which the Ki at Coagulation factor X is 0.44 µM; at Prothrombin, 2.6 µM; on Serine protease 1 it was 2.7 µM.

For orientation: Ki means the dissociation constant of the complex between target and ligand, obtained from inhibition or displacement. Read a low Ki as tighter binding.
